Test results: patent US10913738B2 (BRISTOL-MYERS SQUIBB COMPANY, priority 2017, dated 2021)
Read-outs that look alike come from different tables or passages of the source.

Tests used:
[1] = target: T1, His-GST-TVMV-hRIPK1(1-324) (Homo sapiens, UniProt Q13546); assay: RIPK1 HTRF Binding Assay
T1 construct: The coding region of human RIPK1(1-324) flanked by NdeI site at 5′ end; made in house; host or cells: Spodoptera frugiperda (Sf9) insect cells, baculovirus
T1 sequence (Q13546 1-324): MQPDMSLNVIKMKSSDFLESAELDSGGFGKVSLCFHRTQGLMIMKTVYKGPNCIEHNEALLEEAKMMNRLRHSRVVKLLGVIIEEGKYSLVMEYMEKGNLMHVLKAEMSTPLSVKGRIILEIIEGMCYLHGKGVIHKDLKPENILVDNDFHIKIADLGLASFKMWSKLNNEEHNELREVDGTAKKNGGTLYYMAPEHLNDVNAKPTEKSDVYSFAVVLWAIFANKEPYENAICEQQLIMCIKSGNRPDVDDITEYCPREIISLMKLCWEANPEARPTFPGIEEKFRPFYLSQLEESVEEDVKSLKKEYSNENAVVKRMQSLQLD

[2] = tested on: MLKL phosphorylation in HT29-L23 human colorectal adenocarcinoma cells; assay: MLKL Phosphorylation High-Content Assay; type: cell-based; settings: Homo sapiens
Summary of the method: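 Cells incubated six hours at 37° C., then phospho-MLKL (S358) immunostained overnight at 4° C. and imaged by high-content microscopy. Phosphorylation quantified as mean circ-ring average intensity ratio; IC50 and Ymax from 4-parameter logistic fits.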

[3] = x marks IC50 class <20 nM, read-out: RIPK1 HTRF binding <20 nM
[4] = x marks IC50 class 20-200 nM, read-out: pMLKL cell activity 20-200 nM
[5] = x marks IC50 class <20 nM, read-out: pMLKL cell activity <20 nM
[6] = x marks IC50 class 20-200 nM, read-out: RIPK1 HTRF binding 20-200 nM
[7] = x marks IC50 class >200 nM, read-out: pMLKL cell activity >200 nM

| Structure (SMILES) | IC50 [1, 3] | IC50 [2, 4] | also measured |
| --- | --- | --- | --- |
| Cc1ncc(-c2ccn3nc(N)nc3c2)cc1C(=O)NCc1c(F)cccc1OCC1CC1 [Example 245, 5-{2-amino-[1,2,4]triazolo[1,5-a]pyridin-7-yl}-N-{[2-(cyclopropylmethoxy)-6-fluorophenyl]methyl}-2-methylpyridine-3-carboxamide] | < 20 nM | 20 to 200 nM | – |
| Cc1nc(C)c(-c2ccn3nc(N)nc3c2)cc1C(=O)NCc1ccccc1OCC1CCCC1 [Example 186, 5-{2-amino-[1,2,4]triazolo[1,5-a]pyridin-7-yl}-N-{[2-(cyclopentylmethoxy)phenyl]methyl}-2,6-dimethylpyridine-3-carboxamide] | < 20 nM | 20 to 200 nM | – |
| COc1nc(C)c(-c2ccn3nc(N)nc3c2)cc1C(=O)NCc1cc(OC(F)(F)F)ccc1F [Example 201, 5-{2-amino-[1,2,4]triazolo[1,5-a]pyridin-7-yl}-N-{[2-fluoro-5-(trifluoromethoxy)phenyl]methyl}-2-methoxy-6-methylpyridine-3-carboxamide] | < 20 nM | 20 to 200 nM | – |
| COc1nc(C)c(-c2ccn3nc(N)nc3c2)cc1C(=O)NCc1cc(F)ccc1OC1CCCC1 [Example 216, 5-{2-amino-[1,2,4]triazolo[1,5-a]pyridin-7-yl}-N-{[2-(cyclopentyloxy)-5-fluorophenyl]methyl}-2-methoxy-6-methylpyridine-3-carboxamide] | < 20 nM | – | IC50 [2, 5]: < 20 nM |
| CCOc1ncc(-c2ccn3nc(N)nc3c2)cc1C(=O)NC[C@H]1C[C@@H]1COc1ccc(Br)cc1F [Example 273, 5-{2-amino-[1,2,4]triazolo[1,5-a]pyridin-7-yl}-N-{[(1S,2S)-2-[(4-bromo-2-fluorophenoxy)methyl]cyclopropyl]methyl}-2-ethoxypyridine-3-carboxamide] | – | 20 to 200 nM | IC50 ([1]; x marks IC50 class >200 nM, read-out: RIPK1 HTRF binding >200 nM): > 200 nM |
| Cc1ncc(C(=O)NCc2cc(F)ccc2OCC2CCCC2)cc1-c1ccn2nc(N)nc2c1 [Example 262, 5-{2-amino-[1,2,4]triazolo[1,5-a]pyridin-7-yl}-N-{[2-(cyclopentylmethoxy)-5-fluorophenyl]methyl}-6-methylpyridine-3-carboxamide] | < 20 nM | 20 to 200 nM | – |
| Cc1ncc(-c2ccn3nc(N)nc3c2)cc1C(=O)NCc1ncccc1OCC1CC1 [Example 238, 5-{2-amino-[1,2,4]triazolo[1,5-a]pyridin-7-yl}-N-{[3-(cyclopropylmethoxy)pyridin-2-yl]methyl}-2-methylpyridine-3-carboxamide] | – | 20 to 200 nM | IC50 [1, 6]: 20 to 200 nM |
| COc1nc(C)c(-c2ccn3nc(N)nc3c2)cc1C(=O)NCc1cccnc1OCC1CCC1 [Example 209, 5-{2-amino-[1,2,4]triazolo[1,5-a]pyridin-7-yl}-N-{[2-(cyclobutylmethoxy)pyridin-3-yl]methyl}-2-methoxy-6-methylpyridine-3-carboxamide] | < 20 nM | 20 to 200 nM | – |
| CCCOc1ncc(-c2ccn3nc(N)nc3c2)cc1C(=O)NCc1ccccc1Sc1ccccc1CO [Example 63] | < 20 nM | 20 to 200 nM | – |
| Cc1nc(C)c(-c2ccn3nc(N)nc3c2)cc1C(=O)NCc1cc(C(F)(F)F)ccc1F [Example 192, 5-{2-amino-[1,2,4]triazolo[1,5-a]pyridin-7-yl}-N-{[2-fluoro-5-(trifluoromethyl)phenyl]methyl}-2,6-dimethylpyridine-3-carboxamide] | < 20 nM | – | IC50 [2, 5]: < 20 nM |
| CCOc1ncc(-c2ccn3nc(N)nc3c2)cc1C(=O)NCCc1ccccc1Oc1ccccc1 [Example 269, 5-{2-amino-[1,2,4]triazolo[1,5-a]pyridin-7-yl}-2-ethoxy-N-[2-(2-phenoxyphenyl)ethyl]pyridine-3-carboxamide] | < 20 nM | 20 to 200 nM | – |
| Cc1ncc(-c2ccn3nc(N)nc3c2)cc1C(=O)NCc1cc(C(F)(F)F)ccc1Cl [Example 254] | < 20 nM | 20 to 200 nM | – |
| Nc1nc2cc(-c3cncc(C(=O)NCc4c(F)cccc4OC4CCCC4)c3)ccn2n1 [Example 40, 5-{2-Amino-[1,2,4]triazolo[1,5-a]pyridin-7-yl}-N-{[2-(cyclopentyloxy)-6-fluorophenyl]methyl}pyridine-3-carboxamide] | < 20 nM | 20 to 200 nM | – |
| COc1ncc(-c2ccn3nc(N)nc3c2)cc1C(=O)NCc1cc(F)ccc1OCC(F)(F)F [Example 339, 5-(2-amino-[1,2,4]triazolo[1,5-a]pyridin-7-yl)-N-(5-fluoro-2-(2,2,2-trifluoroethoxy)benzyl)-2-methoxynicotinamide] | < 20 nM | – | IC50 [2, 5]: < 20 nM |
| COc1ncc(-c2ccn3nc(N)nc3c2)cc1C(=O)NCc1c(F)cccc1OCC1CC1 [Example 147, 5-{2-amino-[1,2,4]triazolo[1,5-a]pyridin-7-yl}-N-{[2-(cyclopropylmethoxy)-6-fluorophenyl]methyl}-2-methoxypyridine-3-carboxamide] | < 20 nM | – | IC50 [2, 5]: < 20 nM |
| COc1ncc(-c2ccn3nc(N)nc3c2)cc1C(=O)NCc1ccccc1S(=O)(=O)N1CCCCCC1 [Example 111, 5-{2-amino-[1,2,4]triazolo[1,5-a]pyridin-7-yl}-N-{[2-(azepane-1-sulfonyl)phenyl]methyl}-2-methoxypyridine-3-carboxamide] | < 20 nM | – | IC50 [2, 7]: > 200 nM |
| [2H]C([2H])([2H])Oc1ncc(-c2ccn3nc(N)nc3c2)cc1C(=O)NCc1cc(F)cc(F)c1OC([2H])([2H])C1CC1 [Example 283, 5-(2-amino-[1,2,4]triazolo[1,5-a]pyridin-7-yl)-N-(2-(cyclopropylmethoxy-d2)-3,5-difluorobenzyl)-2-(methoxy-H3)nicotinamide] | < 20 nM | – | IC50 [2, 5]: < 20 nM |
| CCOc1ncc(-c2ccn3nc(N)nc3c2)cc1C(=O)NCc1cc(F)cc(F)c1OCC1CC1 [Example 281, 5-{2-amino-[1,2,4]triazolo[1,5-a]pyridin-7-yl}-N-{[2-(cyclopropylmethoxy)-3,5-difluorophenyl]methyl}-2-ethoxypyridine-3-carboxamide] | < 20 nM | 20 to 200 nM | – |
| Cc1ncc(-c2ccn3nc(N)nc3c2)cc1C(=O)NCc1ccccc1OCC(F)(F)F [Example 312, 5-(2-amino-[1,2,4]triazolo[1,5-a]pyridin-7-yl)-2-methyl-N-(2-(2,2,2-trifluoroethoxy)benzyl)nicotinamide] | – | – | IC50 [1, 6]: 20 to 200 nM; IC50 [2, 7]: > 200 nM |
| Nc1nc2cc(-c3cnc(Cl)c(C(=O)NCc4cccc(OC(F)(F)F)c4)c3)ccn2n1 [Example 167] | < 20 nM | – | IC50 [2, 5]: < 20 nM |
| COc1ncc(-c2ccn3nc(N)nc3c2)cc1C(=O)Nc1cnn(Cc2ccccc2)c1 [Example 84, 5-{2-Amino-[1,2,4]triazolo[1,5-a]pyridin-7-yl}-N-(1-benzyl-1H-pyrazol-4-yl)-2-methoxypyridine-3-carboxamide] | – | 20 to 200 nM | IC50 [1, 6]: 20 to 200 nM |
| Cc1nc(C)c(-c2ccn3nc(N)nc3c2)cc1C(=O)NCc1cccnc1OCC1CCC1 [Example 187, 5-{2-amino-[1,2,4]triazolo[1,5-a]pyridin-7-yl}-N-{[2-(cyclobutylmethoxy)pyridin-3-yl]methyl}-2,6-dimethylpyridine-3-carboxamide] | – | 20 to 200 nM | IC50 [1, 6]: 20 to 200 nM |
| Cc1ncc(-c2ccn3nc(N)nc3c2)cc1C(=O)NCc1ncccc1OCC1CCCC1 [Example 12, 5-{2-amino-[1,2,4]triazolo[1,5-a]pyridin-7-yl}-N-{[3-(cyclopentylmethoxy)pyridin-2-yl]methyl}-2-methylpyridine-3-carboxamide] | < 20 nM | 20 to 200 nM | – |
| COc1ncc(-c2ccn3nc(N)nc3c2)nc1C(=O)NCCC(C)c1ccccc1 (centres unmarked) [Example 385, 6-(2-amino-[1,2,4]triazolo[1,5-a]pyridin-7-yl)-3-methoxy-N-(3-phenylbutyl)pyrazine-2-carboxamide] | – | – | IC50 [1, 6]: 20 to 200 nM; IC50 [2, 7]: > 200 nM |
| Nc1nc2cc(-c3cnc(N)c(C(=O)NCc4ccccc4OCC4CC4)c3)ccn2n1 [Example 56, 2-Amino-5-{2-amino-[1,2,4]triazolo[1,5-a]pyridin-7-yl}-N-{[2-(cyclopropylmethoxy)phenyl]methyl}pyridine-3-carboxamide] | < 20 nM | 20 to 200 nM | – |
| COc1nc(C)c(-c2ccn3nc(N)nc3c2)cc1C(=O)NCc1c(F)cccc1OCC1CCCC1 [Example 220, 5-{2-amino-[1,2,4]triazolo[1,5-a]pyridin-7-yl}-N-{[2-(cyclopentylmethoxy)-6-fluorophenyl]methyl}-2-methoxy-6-methylpyridine-3-carboxamide] | < 20 nM | 20 to 200 nM | – |
| Nc1nc2cc(-c3cnc(Cl)c(C(=O)NCc4cccc(OCC5CC5)c4)c3)ccn2n1 [Example 164] | – | 20 to 200 nM | IC50 [1, 6]: 20 to 200 nM |
| [2H]C([2H])(NC(=O)c1cc(-c2ccn3nc(N)nc3c2)c(C)nc1OC)c1cc(OC(F)(F)F)ccc1F [Example 222, 5-{2-amino-[1,2,4]triazolo[1,5-a]pyridin-7-yl}-N-{[2-fluoro-5-(trifluoromethoxy)phenyl](deutero)methyl}-2-methoxy-6-methylpyridine-3-carboxamide] | < 20 nM | – | IC50 [2, 5]: < 20 nM |
